Laboratory results as given in PubChem BioAssay AID1845203 (Molecular Pharmacology Branch, DTP, NCI, 2023).

Test system: G-401 tumor spheroids, viability % test/control
Assay: Anticancer human tumor G-401 cell line growth inhibition;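 also: spheroids exposed to compound for 7 days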;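 as to viability, T/C: 100% = DMSO vehicle-treated spheroids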
Conditions: spheroids with HUVEC and MSC; for IC50: curve of first compound; for viability, T/C: stronger effect = lower value
How it was run: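 Complex spheroids of malignant cells with endothelial cells and mesenchymal stem cells; agents alone or combined, from near clinical Cmax (or 10 microM if unknown) down in half-log steps, 0.25% DMSO final.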

Q: What does the source list for Cc1cc(C)c(CNC(=O)c2cc(-c3ccc(CN4CCOCC4)cc3)cc3c2cnn3C2CCCC2)c(=O)[nH]1 + CC[C@@]1(O)C(=O)OCc2c1cc1n(c2=O)Cc2cc3c(CN(C)C)c(O)ccc3nc2-1?
A: IC50 (second compound 0.003 µM): 4.21 µM; IC50 (second compound 0.00949 µM): < 0.0316 µM; IC50 (second compound 0.03 µM): < 0.0316 µM; IC50 (second compound 0.0949 µM): < 0.0316 µM; IC50 (second compound 0.3 µM): < 0.0316 µM; viability, T/C (second compound 0.003 µM, first compound 0.0316 µM): 79.7%; viability, T/C (second compound 0.003 µM, first compound 0.1 µM): 81.4%; viability, T/C (second compound 0.003 µM, first compound 0.316 µM): 75.1%; viability, T/C (second compound 0.003 µM, first compound 1 µM): 75.1%; viability, T/C (second compound 0.003 µM, first compound 3.16 µM): 58.2%; viability, T/C (second compound 0.003 µM, first compound 10 µM): 24.3%; viability, T/C (second compound 0.00949 µM, first compound 0.0316 µM): 47.1%; viability, T/C (second compound 0.00949 µM, first compound 0.1 µM): 39.4%; viability, T/C (second compound 0.00949 µM, first compound 0.316 µM): 32.9%; viability, T/C (second compound 0.00949 µM, first compound 1 µM): 33.2%; viability, T/C (second compound 0.00949 µM, first compound 3.16 µM): 22.1%; viability, T/C (second compound 0.00949 µM, first compound 10 µM): 14.2%; viability, T/C (second compound 0.03 µM, first compound 0.0316 µM): 13.4%; viability, T/C (second compound 0.03 µM, first compound 0.1 µM): 12.7%; viability, T/C (second compound 0.03 µM, first compound 0.316 µM): 11%; viability, T/C (second compound 0.03 µM, first compound 1 µM): 9.58%; viability, T/C (second compound 0.03 µM, first compound 3.16 µM): 7.81%; viability, T/C (second compound 0.03 µM, first compound 10 µM): 7.38%; viability, T/C (second compound 0.0949 µM, first compound 0.0316 µM): 7.91%; viability, T/C (second compound 0.0949 µM, first compound 0.1 µM): 8.43%; viability, T/C (second compound 0.0949 µM, first compound 0.316 µM): 7.6%; viability, T/C (second compound 0.0949 µM, first compound 1 µM): 6.51%; viability, T/C (second compound 0.0949 µM, first compound 3.16 µM): 5.89%; viability, T/C (second compound 0.0949 µM, first compound 10 µM): 5.15%; viability, T/C (second compound 0.3 µM, first compound 0.0316 µM): 5.19%; viability, T/C (second compound 0.3 µM, first compound 0.1 µM): 5.25%; viability, T/C (second compound 0.3 µM, first compound 0.316 µM): 4.23%; viability, T/C (second compound 0.3 µM, first compound 1 µM): 4.83%; viability, T/C (second compound 0.3 µM, first compound 3.16 µM): 4.3%; viability, T/C (second compound 0.3 µM, first compound 10 µM): 4.73%

Q: Which results are given for CC1COCCN1c1cc(-c2ccnn2C)c2ccnc(-c3ccn[nH]3)c2n1 (stereo not given) + Cn1nnc2c(C(N)=O)ncn2c1=O?
A: IC50 (second compound 1 µM): 0.0769 µM; IC50 (second compound 3.16 µM): 0.0866 µM; IC50 (second compound 10 µM): 0.0797 µM; IC50 (second compound 31.6 µM): 0.07 µM; IC50 (second compound 100 µM): 0.0556 µM; viability, T/C (second compound 1 µM, first compound 0.0316 µM): 76.3%; viability, T/C (second compound 1 µM, first compound 0.1 µM): 42.1%; viability, T/C (second compound 1 µM, first compound 0.316 µM): 22.9%; viability, T/C (second compound 1 µM, first compound 1 µM): 15.9%; viability, T/C (second compound 1 µM, first compound 3.16 µM): 16.1%; viability, T/C (second compound 1 µM, first compound 10 µM): 20%; viability, T/C (second compound 3.16 µM, first compound 0.0316 µM): 79.8%; viability, T/C (second compound 3.16 µM, first compound 0.1 µM): 45.6%; viability, T/C (second compound 3.16 µM, first compound 0.316 µM): 24.9%; viability, T/C (second compound 3.16 µM, first compound 1 µM): 16.8%; viability, T/C (second compound 3.16 µM, first compound 3.16 µM): 17.4%; viability, T/C (second compound 3.16 µM, first compound 10 µM): 19.8%; viability, T/C (second compound 10 µM, first compound 0.0316 µM): 76%; viability, T/C (second compound 10 µM, first compound 0.1 µM): 43.6%; viability, T/C (second compound 10 µM, first compound 0.316 µM): 21.5%; viability, T/C (second compound 10 µM, first compound 1 µM): 15.7%; viability, T/C (second compound 10 µM, first compound 3.16 µM): 16.4%; viability, T/C (second compound 10 µM, first compound 10 µM): 18.8%; viability, T/C (second compound 31.6 µM, first compound 0.0316 µM): 74.5%; viability, T/C (second compound 31.6 µM, first compound 0.1 µM): 39%; viability, T/C (second compound 31.6 µM, first compound 0.316 µM): 18%; viability, T/C (second compound 31.6 µM, first compound 1 µM): 15.4%; viability, T/C (second compound 31.6 µM, first compound 3.16 µM): 16.2%; viability, T/C (second compound 31.6 µM, first compound 10 µM): 18.5%; viability, T/C (second compound 100 µM, first compound 0.0316 µM): 66%; viability, T/C (second compound 100 µM, first compound 0.1 µM): 33.4%; viability, T/C (second compound 100 µM, first compound 0.316 µM): 13.7%; viability, T/C (second compound 100 µM, first compound 1 µM): 12.7%; viability, T/C (second compound 100 µM, first compound 3.16 µM): 14.1%; viability, T/C (second compound 100 µM, first compound 10 µM): 12%

Q: Which IC50 (second compound 1 µM) does the source give for O=C(c1cc(Cc2n[nH]c(=O)c3ccccc23)ccc1F)N1CCN(C(=O)C2CC2)CC1 + Cn1nnc2c(C(N)=O)ncn2c1=O here?
A: The IC50 was 12.2 µM.

Q: What about the IC50 (second compound 3.16 µM) of the same compound?
A: The IC50 was 8.36 µM.

Q: And the IC50 (second compound 10 µM)?
A: Its IC50 is 5.16 µM.

Q: And the IC50 (second compound 31.6 µM)?
A: The IC50 was 2.12 µM.

Q: And the IC50 (second compound 100 µM)?
A: Its IC50 is 0.402 µM.

Q: And the viability, T/C (second compound 1 µM, first compound 0.0949 µM)?
A: The viability, T/C was 102%.

Q: And the viability, T/C (second compound 1 µM, first compound 0.3 µM)?
A: The viability, T/C was 102%.

Q: And the viability, T/C (second compound 1 µM, first compound 0.949 µM)?
A: Its viability, T/C is 93.3%.

Q: And the viability, T/C (second compound 1 µM, first compound 3 µM)?
A: The viability, T/C was 83%.

Q: What about the viability, T/C (second compound 1 µM, first compound 9.49 µM) of the same compound?
A: Its viability, T/C is 54%.

Q: And the viability, T/C (second compound 1 µM, first compound 30 µM)?
A: Its viability, T/C is 32.9%.

Q: And the viability, T/C (second compound 3.16 µM, first compound 0.0949 µM)?
A: The viability, T/C was 94.4%.

Q: And the viability, T/C (second compound 3.16 µM, first compound 0.3 µM)?
A: The viability, T/C was 96.5%.

Q: And the viability, T/C (second compound 3.16 µM, first compound 0.949 µM)?
A: The viability, T/C was 96.7%.

Q: And the viability, T/C (second compound 3.16 µM, first compound 3 µM)?
A: Its viability, T/C is 80.4%.

Q: What about the viability, T/C (second compound 3.16 µM, first compound 9.49 µM) of the same compound?
A: The viability, T/C was 46.6%.

Q: What about the viability, T/C (second compound 3.16 µM, first compound 30 µM) of the same compound?
A: Its viability, T/C is 28.3%.

Q: And the viability, T/C (second compound 10 µM, first compound 0.0949 µM)?
A: The viability, T/C was 91.2%.

Q: And the viability, T/C (second compound 10 µM, first compound 0.3 µM)?
A: Its viability, T/C is 95%.

Q: What about the viability, T/C (second compound 10 µM, first compound 0.949 µM) of the same compound?
A: Its viability, T/C is 94.5%.

Q: And the viability, T/C (second compound 10 µM, first compound 3 µM)?
A: The viability, T/C was 66.7%.

Q: What about the viability, T/C (second compound 10 µM, first compound 9.49 µM) of the same compound?
A: Its viability, T/C is 31.3%.

Q: And the viability, T/C (second compound 10 µM, first compound 30 µM)?
A: The viability, T/C was 20.4%.

Q: And the viability, T/C (second compound 31.6 µM, first compound 0.0949 µM)?
A: Its viability, T/C is 91.6%.

Q: And the viability, T/C (second compound 31.6 µM, first compound 0.3 µM)?
A: The viability, T/C was 83.2%.

Q: And the viability, T/C (second compound 31.6 µM, first compound 0.949 µM)?
A: Its viability, T/C is 79%.

Q: And the viability, T/C (second compound 31.6 µM, first compound 3 µM)?
A: The viability, T/C was 37.4%.

Q: What about the viability, T/C (second compound 31.6 µM, first compound 9.49 µM) of the same compound?
A: The viability, T/C was 19.5%.

Q: And the viability, T/C (second compound 31.6 µM, first compound 30 µM)?
A: Its viability, T/C is 15.4%.

Q: And the viability, T/C (second compound 100 µM, first compound 0.0949 µM)?
A: The viability, T/C was 65.8%.

Q: And the viability, T/C (second compound 100 µM, first compound 0.3 µM)?
A: The viability, T/C was 58.1%.

Q: And the viability, T/C (second compound 100 µM, first compound 0.949 µM)?
A: Its viability, T/C is 26.8%.

Q: What about the viability, T/C (second compound 100 µM, first compound 3 µM) of the same compound?
A: Its viability, T/C is 17.9%.

Q: What about the viability, T/C (second compound 100 µM, first compound 9.49 µM) of the same compound?
A: The viability, T/C was 14.3%.

Q: What about the viability, T/C (second compound 100 µM, first compound 30 µM) of the same compound?
A: The viability, T/C was 13.3%.
